Laboratory results as given in patent US5723439A (priority 1991, dated 1998).

Tested on: influenza A/Aichi/2/68 (H3N2) virus
Assay type: in vivo, mice
Conditions: intraperitoneal 15,000 KIU/mouse/day, 5-6 injections daily for 7 days

**Q.** aprotinin was tested. Which “protective effect (survival)” value did it give?
**A.** The value was 30%.
